According to patent US4938964A, “External dermatological composition” (Showa Denko Kabushiki Kaisha, priority 1987, dated 1990):

Columns and labels:
[1] = Evaluation Example 3: remaining drug amount in tape preparation after storage; format: physicochemical; conditions: formulated into the (meth)acrylic copolymer used in the present invention; Table 3
Protocol: The tape preparation prepared in Example 4 and Comparative Examples 8 and 9 were cut into 7×10 cm squares and were placed in a polyethylene-aluminum laminate bag and all four sides of the bag were sealed.
The tape agent was stored at 40° C. and 75% R.H. for 3 months and the remaining drug amount in the tape preparation was measured in the same manner as in Evaluation Example 1.
From the residual amount of drug measured, the drug remaining rate was calculated by the following formula: [formula]

[2] = Evaluation Example 1: drug absorption to skin from residual drug amount, HPLC; conditions: formulated into the (meth)acrylic copolymer used in the present invention; Table 1
Protocol: The tape preparation or poultice preparation was peeled off 24 hours after application, and the drug remaining on the applied site was wiped off with defatted cotton containing 1 ml of distilled water. The tape preparation or poultice preparation peeled off was stirred in 200 ml of hot ethanol for 2 hours to extract the drug, cooled to room temperature, and then brought to a constant volume of 200 ml with ethanol. To 5 ml of the solution was added 5 ml of an internal standard substance (300 μg/ml of an aqueous flulubiprofen solution was used), and after bringing to a constant volume of 50 ml with ethanol, the residual drug amount was measured by high performance liquid chromatography (hereinafter abbreviated as HPLC). The defatted cotton was stirred in 200 ml of distilled water for 2 hours to extract the drug, and to 5 ml of the solution was added 5 ml of the internal standard substance. After the mixture was brought to a constant volume of 50 ml with distilled water, the remaining drug amount was measured by HPLC.
The ointment was wiped off with defatted cotton containing ethanol (10 ml of ethanol content) 24 hours after application. […] To 5 ml of the solution was added 5 ml of the above internal standard substance, and after bringing to 50 ml with ethanol, the remaining drug amount was measured by HPLC.

[3] = keratin soluble enzyme, N-acylsarcosine, aliphatic monoalkylolamide, or organic acid added; cited from earlier work
[4] = adhesives containing polar monomers; cited from earlier work

| SMILES | chemical stability in the preparations (in words) [1] | percutaneous absorption of the drug (in words) [2] | enhancement of the absorption by additive substance [3] | amount formulated at which crystals are not precipitated [4] |
| --- | --- | --- | --- | --- |
| O=C(O)Cc1ccccc1Nc1c(Cl)cccc1Cl [diclofenac sodium] | poor | poor | – | – |
| CC(C(=O)O)c1cccc(Oc2ccccc2)c1 (stereo not shown) [fenoprofen] | – | – | 2 -fold | – |
| COc1ccc2c(c1)c(CC(=O)O)c(C)n2C(=O)c1ccc(Cl)cc1 [indomethacin] | poor | poor | 2 -fold | – |
| CC(C(=O)O)c1cccc(C(=O)c2ccccc2)c1 (stereo not shown) [ketoprofen, 3-Benzoylhydratropic acid] | – | – | – | about 40 % by weight |
